Measured values from ChEMBL document CHEMBL1240427, “Chemistry around imidazopyrazine and ibuprofen: discovery of novel fatty acid amide hydrolase (FAAH) inhibitors” (Eur J Med Chem, 2010).

These molecules were tested on Caco-2 (assay: Effect in human Caco-2 cells assessed as IL-1-beta-induced IL8 production relative to control at 50 uM after 24 hrs by ELISA). Conditions: Caco-2, 24 h.

| SMILES | level, % of control at 50 µM [%] |
| --- | --- |
| CC(C)Cc1ccc(C(C)C(=O)n2nnc3ccccc32)cc1 (configuration not stated) | 76 |
| CON(C)C(=O)C(C)c1ccc(CC(C)C)cc1 (configuration not stated) | 55 |
| CC(C)Cc1ccc(C(C)C(=O)/C=N/O)cc1 (configuration not stated) | 290 |
| Oc1ccc(-c2cn3c(O)c(-c4ccccc4)nc3cn2)cc1 | 65 |
| N=c1c(-c2ccccc2)nc2c[nH]c(-c3ccc(O)cc3)cn1-2 | 56 |
| CC(C)Cc1ccc(C(C)C(=O)CCl)cc1 (configuration not stated) | 70 |

What follows are molecules tested on Caco-2 (assay: Effect in human Caco-2 cells assessed as IL-1-beta-induced IL8 production relative to control at 5 uM after 24 hrs by ELISA). Conditions: Caco-2, 24 h.

| SMILES | level, % of control at 5 µM [%] |
| --- | --- |
| N=c1c(-c2ccccc2)nc2c[nH]c(-c3ccc(O)cc3)cn1-2 | 75 |
